# System: severe COVID-19 patients
# Assay: Observation of seriously ill COVID-19 ICU patients treated with orally inhaled solnatide (Example 2)
# Description: Community patients with serious health conditions were admitted to a local hospital for examination. In some of these patients, COVID-19 was confirmed by positive testing for SARS-CoV-2 by nasopharyngeal swab and real-time RT-PCR.
# Following worsening of conditions, seriously ill COVID-19 patients were admitted to the ICU of the hospital.
# These patients were treated with placebo only in addition to standard critical care treatment and life support.
# During an observation period of 7 days, patient-centred clinical parameters which reflect the severity of COVID-19 were recorded.
# The SOFA score was used to track a patient's status during the stay in an intensive care unit (ICU) to determine the extent of the patient's organ function or rate of failure.
substance,measurement,setting,value
cyclo-CGQRETPEGAEAKPWYC [solnatide],mean SOFA score at end of treatment period,"COVID-19 ICU patients, orally inhaled solnatide twice daily plus standard critical care, after 7-day treatment period, FIG. 1",8
same,mean SOFA score at start of treatment period,"COVID-19 ICU patients, orally inhaled solnatide twice daily plus standard critical care, start of 7-day treatment, FIG. 1",12
same,"mean body temperature, change during treatment","COVID-19 ICU patients, orally inhaled solnatide twice daily, 7-day treatment period, elevated at initiation, FIG. 3",decreased
same,mean dynamic lung compliance at end of treatment period,"COVID-19 ICU patients, orally inhaled solnatide twice daily, after 7-day treatment period, FIG. 2",50 mL/cm H2O
same,mean dynamic lung compliance at start of treatment period,"COVID-19 ICU patients, orally inhaled solnatide twice daily, start of 7-day treatment, FIG. 2",approx. 35 mL/cm H2O
same,patients who died within 28 days after onset of COVID-19 symptoms,"severe COVID-19 patients treated with solnatide, comparator cohort: 3 patients died",none
